Consider 13 compounds from ChEMBL document CHEMBL1122028, “1-Acyltriazoles as antiinflammatory agents” (J Med Chem, 1982).

In general, LD50 refers to the dose expected to kill half of the subjects tested.

In data set [1] the test system is Mus musculus. In words: Tested for antiinflammatory activity in the mouse active Arthus (MAA) test by peroral administration. Type of data set: functional. The conditions noted are these: for ED50: po, read-out: ID50 (the source's name).
In data set [2] the test system is Rattus norvegicus. In words: Biological activity against carrageenan-induced edema. Format: functional. Conditions: read-out: ID50 (the source's name).
Data set [3] has as its system Mus musculus. Put plainly: Tested for antiinflammatory activity in the mouse active Arthus (MAA) test by intraperitoneal administration. Format: functional. The conditions noted are these: ip, read-out: ID50 (the source's name).
Data set [4] concerns Rattus norvegicus. In words: Biological activity against adjuvant-induced arthritis at the dose of 37.5 mg/kg (p.o.); 18/7. Conditions: route oral. Type of data set: functional.
The test system of data set [5] is Rattus norvegicus. Put plainly: Biological activity against adjuvant-induced arthritis at the dose of 75 mg/kg (p.o.). Type of data set: functional. The conditions noted are these: route oral.
The subject of data set [6] is Rattus norvegicus. In words: Biological activity against adjuvant-induced arthritis at the dose of 75 mg/kg (p.o.); 27/26. Format: functional. The conditions noted are these: route oral.
The test system of data set [7] is Rattus norvegicus. Put plainly: Biological activity against adjuvant-induced arthritis at the dose of 150 mg/kg (p.o.). Type of data set: functional. The conditions noted are these: route oral.
Data set [8] is described as follows: Lethal dose required to produce acute toxicity in mice(po). Type of data set: organism-based. The conditions noted are these: mouse, in vivo.
A short description of data set [9]: Lethal dose required to produce acute toxicity in mice(ip). Format: organism-based. Conditions: mouse, in vivo.
The subject of data set [10] is Rattus norvegicus. Put plainly: Biological activity against adjuvant-induced arthritis at the dose of 37.5 mg/kg (p.o.). Type of data set: functional. Conditions: route oral.
Data set [11] in a line: Therapeutic index (LD50/ID50, MAA) value of the compound. The conditions noted are these: read-out: TI.
For data set [12], the system named is Rattus norvegicus. In words: Biological activity against adjuvant-induced arthritis at the dose of 150 mg/kg (p.o.); 21/73. The conditions noted are these: route oral. Type of data set: functional.
Data set [13] is filed under the species Rattus norvegicus. Put plainly: animal or person. The conditions noted are these: po, read-out: Inhibition.
Description: Biological activity against adjuvant-induced arthritis at the dose of 30 mg/kg (p.o.); 30/30
In data set [14] the test system is Rattus norvegicus. In words: Biological activity against adjuvant-induced arthritis at the dose of 120 mg/kg (p.o.); 65/57. Format: functional. Conditions: route oral.
In data set [15] the test system is Rattus norvegicus. In words: Biological activity against adjuvant-induced arthritis at the dose of 30 mg/kg (p.o.). The conditions noted are these: route oral. Type of data set: functional.
The test system of data set [16] is Rattus norvegicus. In words: Biological activity against adjuvant-induced arthritis at the dose of 60 mg/kg (p.o.). Conditions: route oral. Type of data set: functional.
Data set [17] concerns Rattus norvegicus. Put plainly: Biological activity against adjuvant-induced arthritis at the dose of 120 mg/kg (p.o.). Format: functional. Conditions: route oral.
For data set [18], the species on record is Rattus norvegicus. In words: animal or person. The conditions noted are these: po, read-out: Inhibition. This is another data set of the same source.
Description: Biological activity against adjuvant-induced arthritis at the dose of 60 mg/kg (p.o.); 56/61

Structures are written as SMILES. A value given as a limit tells only on which side of the number the result lay.

As for `CC(=O)n1nc(-c2ccc(Cl)cc2)nc1C`, the ID40 in the data set on Mus musculus [1] was found to be 175 mg/kg. Besides, the ED50 was 342 mg/kg in the data set on Mus musculus [1], over 150 mg/kg in the data set on Rattus norvegicus [2] and 37 mg/kg with Mus musculus [3]. Besides, the inhibition in vivo at 37.5 mg/kg in the data set on Rattus norvegicus [4] is 18%; with Rattus norvegicus [10] it was 90%. Besides, the inhibition in vivo at 75 mg/kg is 90% in the data set with Rattus norvegicus [5] and 27% in the data set with Rattus norvegicus [6]. For the same compound, the inhibition in vivo at 150 mg/kg with Rattus norvegicus [7] is 90%; in the data set on Rattus norvegicus [12] it was 21%. Moreover, the median lethal dose (LD50) is over 3200 mg/kg in data set [8] and 600 mg/kg in [9]. Further, the selectivity ratio in data set [11] was over 9.35.

As to `Cc1nnc(C)n1/N=C(\N)c1ccc(C(F)(F)F)cc1`, the ED50 with Mus musculus [1] was over 600 mg/kg.

Consider `CCc1nnc(CC)n1N`, for which, in the data set with Mus musculus [1], the ED50 was over 600 mg/kg.

Regarding `Cc1nc(-c2ccc(Cl)cc2)nn1C(=O)c1ccccc1`, the ED50 in the data set with Mus musculus [1] was over 600 mg/kg.

In the case of `Cc1ccc(C(=N)Nn2c(C)nnc2C)cc1`, the ED50 in the data set on Mus musculus [1] is over 600 mg/kg.

For `CC(=O)n1nc(-c2ccc(C)cc2)nc1C`, in the data set on Mus musculus [1], the ED50 was over 600 mg/kg.

On to `Cc1nnc(C)n1/N=C(\N)c1ccccc1`, for which the ED50 with Mus musculus [1] was over 600 mg/kg.

For the compound `CC(=O)n1nc(-c2ccc(C(F)(F)F)cc2)nc1C`, the ED50 in the data set on Mus musculus [1] stood at 411 mg/kg.

As to `CCC(=O)n1nc(-c2ccc(Cl)cc2)nc1C`, the ED50 in the data set with Mus musculus [1] is 408 mg/kg.

Consider `CCc1nnc(CC)n1/N=C(\N)c1ccc(Cl)cc1`, for which the ED50 in the data set with Mus musculus [1] is over 600 mg/kg.

Regarding `CCc1nc(-c2ccc(Cl)cc2)nn1C(C)=O`, the ED50 in the data set with Mus musculus [1] was 543 mg/kg.

For the compound `CC(=O)n1nc(-c2ccccc2)nc1C`, the ED50 in the data set with Mus musculus [1] came out at 439 mg/kg.

For the compound `CC(C)Cc1ccc(C(C)C(=O)O)cc1` (configuration not stated) [IBUPROFEN], the inhibition in vivo at 30 mg/kg was 30% in the data set filed under Rattus norvegicus [13] and 100% in the data set on Rattus norvegicus [15]. In the data set on Mus musculus [1], this compound had an ID40 of 386 mg/kg. Also, the ED50 with Mus musculus [1] was over 600 mg/kg; with Rattus norvegicus [2], 70 mg/kg; in the data set with Mus musculus [3], over 150 mg/kg. Further, the values for the inhibition in vivo at 120 mg/kg in the data set on Rattus norvegicus [14] and with Rattus norvegicus [17] were 65% and 100%, respectively. Besides, the inhibition in vivo at 60 mg/kg in the data set with Rattus norvegicus [16] came to 100%; in the data set listed under Rattus norvegicus [18], 56%. In addition, the LD50 in [8] came to 1650 mg/kg; in [9], 490 mg/kg. Also, the selectivity ratio in data set [11] is under 2.15.
